In article PMC8179393 (Chemical Science, 2021):

What was measured:
[1] = test system: OVCAR8 cells; experiment: Cellular cisplatin sensitization assay; format: cell-based, human; settings: OVCAR8, absence of cisplatin, peptide 50 μM or chloroquine 5 μM, 48 h
[2] = test system: HEY cells; experiment: Cellular cisplatin sensitization assay; format: cell-based, human; settings: absence of cisplatin, peptide 50 μM or chloroquine 5 μM, 48 h

## CCN(CC)CCCC(C)Nc1ccnc2cc(Cl)ccc12 (centres unmarked) [chloroquine]
[1]
  cell viability (MTT), in words: significantly reduced cell viability
[2]
  cell viability (MTT), in words: significantly reduced cell viability
